Tested on: 233499-124-R-J3-PDC complex spheroid growth
Experiment: Anticancer human tumor 233499-124-R-J3-PDC patient-derived colon adenocarcinoma cell line growth inhibition [AhR]
Conditions: for IC50: curve of first compound; for viability, T/C: stronger effect = lower value
Description: Multicellular complex tumor spheroid response to aryl hydrocarbon receptor antagonists in combination with a variety of drugs and investigational agents in selected tumor cell lines
The current study was undertaken to assess response to aryl hydrocarbon receptor antagonists in combination with standard-of-care drugs and investigational agents in solid tumor complex spheroid models. Complex spheroids include a stromal component modeled by human endothelial cells (HUVEC) and fibroblasts modeled by human mesenchymal stem cells (MSCs). The concentration ranges selected for each drug and investigational agent were based upon clinically achievable concentrations if the clinical Cmax of the agent was known.
Compounds. The drugs and investigational agents: BAY 2416964 (NSC825713), GNF351 (NSC835774), CH-223191 (NSC835775), CPI-455 (NSC825282), aza-TdCyd (NSC777586), decitabine (NSC127716), belinostat (NSC758774), entinostat (NSC756642), pevonedistat (NSC761192), tazemetostat (NSC777109), talazoparib (NSC765396), olaparib (NSC753686), selinexor (NSC780203), nedisertib (M3814, NSC802822), bortezomib (NSC756655), venetoclax (NSC766270), doxorubicin (NSC123127), elimusertib (BAY189344, NSC800525), ceralasertib (AZD6738, NSC777638), TAK-243 (NSC785004), alisertib (NSC759677), etoposide (NSC141540), topotecan (NSC609699), eribulin (NSC707389), gemcitabine (NSC613327), carboplatin (NSC241240), cisplatin (NSC119875), and SN-38 (NSC673596) were obtained from the National Cancer Institute (NCI) Developmental Therapeutics Program Chemical Repository (32). The FDA-approved anticancer drug set is available from the Developmental Therapeutics Program at https://dtp.cancer.gov/organization/dscb/obtaining/available plates.htm. […] The stock solutions were prepared in dimethyl sulfoxide (DMSO, Sigma-Aldrich, St. Louis, MO, cat. D2650), except for the platinum compounds which were prepared in saline (Quality Biological, Gaithersburg, MD, cat. 114-055-101), at 800-fold the tested concentration and stored at -70 degrees C prior to their use. All drugs and investigational agents were tested over a range starting from a high concentration at or near the clinical Cmax and decreasing in half-log increments. If the clinical Cmax for an agent had not been determined, the highest concentration tested was 10 microM (Table 1).
Cell Culture. All cells were maintained in an incubator at 37 degrees C and 5% CO2 with 95% humidity. The PDC lines were cultured according to standard operating procedures established by the NCI PDMR (https://pdmr.cancer.gov). Briefly, all PDCs were thawed and cultured in Matrigel-coated flasks prepared with a working solution of 1X Ham's F-12 nutrient mix, without supplementation (Invitrogen, Waltham, MA, cat. 11765054), 100 U/mL penicillin-streptomycin (Invitrogen, cat. 15140122), and 2.5% Matrigel (Corning Inc., Corning, NY, cat. 354248) for the first three passages. All PDCs were cultured in complete DMEM/F-12 media containing advanced DMEM/F-12 (Invitrogen, cat. 12634028), 4.9% defined fetal bovine serum, heat inactivated (HyClone Laboratories Inc., Logan, UT, cat. SH30070.03HI), 389 ng/mL hydrocortisone (Sigma-Aldrich, cat. H4001), 9.7 ng/mL human EGF recombinant protein (Invitrogen, cat. PHG0313), 23.4 microg/mL adenine (Sigma-Aldrich, cat. A2786), 97.3 U/mL penicillin-streptomycin (Invitrogen, cat. 15140122), 1.9 mM L-glutamine (Invitrogen, cat. 25030081), and 9.7 microM Y-27632 dihydrochloride (Tocris Bioscience, Bristol, United Kingdom, cat. 1254). The PDCs were cultured in complete DMEM/F12 media without 10 microM Y-27632 dihydrochloride for at least two passages prior to the screen. The established cell lines NCI-H1341 and […] were cultured in DMEM/F-12, HEPES (Invitrogen, cat. 11330032), 5% defined fetal bovine serum (HyClone Laboratories Inc., cat. SH30070.03), ITS premix universal culture supplement [insulin (5 microg/mL), transferrin (5 microg/mL), and selenious acid (5 ng/mL)] […]

[1] = second compound 0.1 µM, first compound 0.0316 µM
[2] = second compound 0.1 µM, first compound 0.1 µM
[3] = second compound 0.1 µM, first compound 0.316 µM
[4] = second compound 0.1 µM, first compound 1 µM
[5] = second compound 0.1 µM, first compound 3.16 µM
[6] = second compound 0.1 µM, first compound 10 µM
[7] = second compound 0.316 µM, first compound 0.0316 µM
[8] = second compound 0.316 µM, first compound 0.1 µM
[9] = second compound 0.316 µM, first compound 0.316 µM
[10] = second compound 0.316 µM, first compound 1 µM
[11] = second compound 0.316 µM, first compound 3.16 µM
[12] = second compound 0.316 µM, first compound 10 µM
[13] = second compound 1 µM, first compound 0.0316 µM
[14] = second compound 1 µM, first compound 0.1 µM
[15] = second compound 1 µM, first compound 0.316 µM
[16] = second compound 1 µM, first compound 1 µM
[17] = second compound 1 µM, first compound 3.16 µM
[18] = second compound 1 µM, first compound 10 µM
[19] = second compound 3.16 µM, first compound 0.0316 µM
[20] = second compound 3.16 µM, first compound 0.1 µM
[21] = second compound 3.16 µM, first compound 0.316 µM
[22] = second compound 3.16 µM, first compound 1 µM
[23] = second compound 3.16 µM, first compound 3.16 µM
[24] = second compound 3.16 µM, first compound 10 µM
[25] = second compound 10 µM, first compound 0.0316 µM
[26] = second compound 10 µM, first compound 0.1 µM
[27] = second compound 10 µM, first compound 0.316 µM
[28] = second compound 10 µM, first compound 1 µM
[29] = second compound 10 µM, first compound 3.16 µM
[30] = second compound 10 µM, first compound 10 µM
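Note: spheroids exposed to agents for seven days before reading.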

`O=C(c1cc(Cc2n[nH]c(=O)c3ccccc23)ccc1F)N1CCN(C(=O)C2CC2)CC1` + Cc1cncc(-c2nc(NCCc3c[nH]c4ccccc34)c3ncn(C(C)C)c3n2)c1 showed an IC50 (second compound 0.1 µM) of over 10000 nM, an IC50 (second compound 0.316 µM) of over 10000 nM and an IC50 (second compound 1 µM) of over 10000 nM. It also gave an IC50 (second compound 3.16 µM) of over 10000 nM, an IC50 (second compound 10 µM) of under 31.6 nM and a viability, T/C [1] of 115%. The viability, T/C [2] was 105%, the viability, T/C [3] was 100% and the viability, T/C [4] was 102%. It also gave a viability, T/C [5] of 98.6%, a viability, T/C [6] of 105% and a viability, T/C [7] of 106%. For the same molecule, the viability, T/C [8] was 99.3%, the viability, T/C [9] was 96.3% and the viability, T/C [10] was 95.5%. For the same molecule, the viability, T/C [11] was 103%, the viability, T/C [12] was 92.3% and the viability, T/C [13] was 87.5%. For the same molecule, the viability, T/C [14] was 97.2%, the viability, T/C [15] was 93.9% and the viability, T/C [16] was 71.5%. The viability, T/C [17] was 87.5%, the viability, T/C [18] was 86% and the viability, T/C [19] was 74.8%. It also gave a viability, T/C [20] of 86.4%, a viability, T/C [21] of 76.3% and a viability, T/C [22] of 83.6%. It also gave a viability, T/C [23] of 85.9%, a viability, T/C [24] of 90.1% and a viability, T/C [25] of 5.45%. For the same molecule, the viability, T/C [26] was 6.91%, the viability, T/C [27] was 19.4% and the viability, T/C [28] was 16.2%. The viability, T/C [29] was 8.78% and the viability, T/C [30] was 19.1%.

In the case of `CC(C)CC(NC(=O)C(Cc1ccccc1)NC(=O)c1cnccn1)B(O)O` (stereo not given) + Cc1cncc(-c2nc(NCCc3c[nH]c4ccccc34)c3ncn(C(C)C)c3n2)c1, the IC50 (second compound 0.1 µM) is reported as 15.4 nM, the IC50 (second compound 0.316 µM) is reported as 13.3 nM and the IC50 (second compound 1 µM) is reported as 13.2 nM. For the same molecule, the IC50 (second compound 3.16 µM) was 12.9 nM, the IC50 (second compound 10 µM) was under 0.949 nM and the viability, T/C (second compound 0.1 µM, first compound 0.000949 µM) was 98.3%. For the same molecule, the viability, T/C (second compound 0.1 µM, first compound 0.003 µM) was 95.1%, the viability, T/C (second compound 0.1 µM, first compound 0.00949 µM) was 86.4% and the viability, T/C (second compound 0.1 µM, first compound 0.03 µM) was 0.15%. The viability, T/C (second compound 0.1 µM, first compound 0.0949 µM) was 0.05%, the viability, T/C (second compound 0.1 µM, first compound 0.3 µM) was 0.13% and the viability, T/C (second compound 0.316 µM, first compound 0.000949 µM) was 92%. For the same molecule, the viability, T/C (second compound 0.316 µM, first compound 0.003 µM) was 86.9%, the viability, T/C (second compound 0.316 µM, first compound 0.00949 µM) was 70.9% and the viability, T/C (second compound 0.316 µM, first compound 0.03 µM) was 0.12%. The viability, T/C (second compound 0.316 µM, first compound 0.0949 µM) was 0.04%, the viability, T/C (second compound 0.316 µM, first compound 0.3 µM) was 0.13% and the viability, T/C (second compound 1 µM, first compound 0.000949 µM) was 92.1%. For the same molecule, the viability, T/C (second compound 1 µM, first compound 0.003 µM) was 89%, the viability, T/C (second compound 1 µM, first compound 0.00949 µM) was 69.7% and the viability, T/C (second compound 1 µM, first compound 0.03 µM) was 0.12%. For the same molecule, the viability, T/C (second compound 1 µM, first compound 0.0949 µM) was 0.05%, the viability, T/C (second compound 1 µM, first compound 0.3 µM) was 0.13% and the viability, T/C (second compound 3.16 µM, first compound 0.000949 µM) was 86.2%. It also gave a viability, T/C (second compound 3.16 µM, first compound 0.003 µM) of 82.1%, a viability, T/C (second compound 3.16 µM, first compound 0.00949 µM) of 68.3% and a viability, T/C (second compound 3.16 µM, first compound 0.03 µM) of 0.11%. It also gave a viability, T/C (second compound 3.16 µM, first compound 0.0949 µM) of 0.04%, a viability, T/C (second compound 3.16 µM, first compound 0.3 µM) of 0.9% and a viability, T/C (second compound 10 µM, first compound 0.000949 µM) of 8.49%. It also gave a viability, T/C (second compound 10 µM, first compound 0.003 µM) of 5.28%, a viability, T/C (second compound 10 µM, first compound 0.00949 µM) of 4.74% and a viability, T/C (second compound 10 µM, first compound 0.03 µM) of 0.17%. For the same molecule, the viability, T/C (second compound 10 µM, first compound 0.0949 µM) was 0.15% and the viability, T/C (second compound 10 µM, first compound 0.3 µM) was 0.21%.

Molecule `NS(=O)(=O)OCC1CC(n2ccc3c(NC4CCc5ccccc54)ncnc32)CC1O` (stereo not given) + CC(CO)NC(=O)c1cc(-c2ccc(Cl)cc2)nn(-c2cnn(C)c2)c1=O has an IC50 (second compound 0.1 µM) of 229 nM, an IC50 (second compound 0.316 µM) of 196 nM and an IC50 (second compound 1 µM) of 214 nM. It also gave an IC50 (second compound 3.16 µM) of 194 nM, an IC50 (second compound 10 µM) of 112 nM and a viability, T/C [1] of 100%. It also gave a viability, T/C [2] of 81.9%, a viability, T/C [3] of 38.2% and a viability, T/C [4] of 6.95%. The viability, T/C [5] was 3.58%, the viability, T/C [6] was 2.89% and the viability, T/C [7] was 101%. It also gave a viability, T/C [8] of 76.1%, a viability, T/C [9] of 32.2% and a viability, T/C [10] of 4.48%. The viability, T/C [11] was 2.85%, the viability, T/C [12] was 1.79% and the viability, T/C [13] was 97.3%. It also gave a viability, T/C [14] of 83.6%, a viability, T/C [15] of 32.7% and a viability, T/C [16] of 7.56%. For the same molecule, the viability, T/C [17] was 2.89%, the viability, T/C [18] was 2.21% and the viability, T/C [19] was 97.8%. For the same molecule, the viability, T/C [20] was 85.1%, the viability, T/C [21] was 23.9% and the viability, T/C [22] was 7.17%. It also gave a viability, T/C [23] of 4.49%, a viability, T/C [24] of 4.6% and a viability, T/C [25] of 89.6%. For the same molecule, the viability, T/C [26] was 54%, the viability, T/C [27] was 12.6% and the viability, T/C [28] was 4.19%. For the same molecule, the viability, T/C [29] was 4.04% and the viability, T/C [30] was 2.93%.
